Laboratory results reported in patent publication US10167262B2, “Herbicidal substituted 3-arylpyrazoles” (FMC CORPORATION, priority 2014, dated 2019).

Tests used:
Assay type in all cases: in vivo
[1] = tested on: ragweed (common ragweed, Ambrosia elatior); assay: Test C pre-/postemergence greenhouse test, plant response rating 0-100
Method in brief: (§1)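 Visual 0–100 control scores, taken 13 to 15 days post-application in a greenhouse, reflect treatment preemergence (seed in loam soil with sand) or postemergence (2–18 cm plants in peat moss, vermiculite medium). A dash marks no result.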

[2] = tested on: morningglory (Ipomoea coccinea); assay: as above
Method in brief: as §1

[3] = tested on: blackgrass (Alopecurus myosuroides); assay: as above
Method in brief: as §1

[4] = tested on: large (Lg) crabgrass (Digitaria sanguinalis); assay: as above
Method in brief: as §1

[5] = tested on: velvetleaf (Abutilon theophrasti); assay: as above
Method in brief: as §1

corn (Zea mays) = assay: Test A pre-/postemergence greenhouse herbicide test, visual injury rating 0-100
Method in brief: (§2)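 Visual injury versus untreated controls, scored about 10 days after treatment on a 0 to 100 scale (0 = no effect, 100 = complete control). Applications were preemergence directed soil spray plus postemergence spray at one- to two-leaf stage, 2 to 10 cm plants.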

[6] = tested on: wheat (Triticum aestivum); assay: as above
Method in brief: as §2

[7] = tested on: pigweed (Amaranthus retroflexus); assay: as above
Method in brief: as §2

[8] = tested on: large (Lg) crabgrass (Digitaria sanguinalis); assay: as above
Method in brief: as §2

[9] = tested on: morningglory (Ipomoea spp.); assay: as above
Method in brief: as §2

[10] = tested on: velvetleaf (Abutilon theophrasti); assay: as above
Method in brief: as §2

[11] = tested on: giant foxtail (Setaria faberii); assay: as above
Method in brief: as §2

[12] = tested on: barnyardgrass (Echinochloa crus-galli); assay: as above
Method in brief: as §2

[13] = Postemergence, 250 g ai/ha, scale 0 to 100
[14] = Postemergence, 500 g ai/ha, scale 0 to 100

O=Cn1cc(C(=O)c2ccccc2)c(-c2cc(Cl)cc(Cl)c2)n1 [Compound 28]
Plant response rating (0 to 100), Ragweed ([1]; Postemergence, 62 g ai/ha): 60
Plant response rating (0 to 100), Ragweed ([1]; Postemergence, 125 g ai/ha): 45
Plant response rating, Ragweed [1, 13]: 70
Plant response rating, Ragweed [1, 14]: 85
Plant response rating, Ragweed ([1]; Preemergence, 62 g ai/ha): 65
Plant response rating, Ragweed ([1]; Preemergence, 125 g ai/ha): 75
Plant response rating, Ragweed ([1]; Preemergence, 250 g ai/ha): 90
Plant response rating, Ragweed ([1]; Preemergence, 500 g ai/ha): 98
Plant response rating (0 to 100), Morningglory ([2]; Postemergence, 62 g ai/ha): 0
Plant response rating (0 to 100), Morningglory ([2]; Postemergence, 125 g ai/ha): 0
Plant response rating, Morningglory [2, 13]: 0
Plant response rating, Morningglory [2, 14]: 0
Plant response rating, Morningglory ([2]; Preemergence, 62 g ai/ha): 0
Plant response rating, Morningglory ([2]; Preemergence, 125 g ai/ha): 0
Plant response rating, Morningglory ([2]; Preemergence, 250 g ai/ha): 0
Plant response rating, Morningglory ([2]; Preemergence, 500 g ai/ha): 0
Plant response rating (0 to 100), Blackgrass ([3]; Postemergence, 62 g ai/ha): 0
Plant response rating, Blackgrass ([3]; Postemergence, 125 g ai/ha, scale 0 to 100): 0
Plant response rating, Blackgrass [3, 13]: 0
Plant response rating, Blackgrass [3, 14]: 0
Plant response rating, Blackgrass ([3]; Preemergence, 62 g ai/ha): 0
Plant response rating, Blackgrass ([3]; Preemergence, 125 g ai/ha): 0
Plant response rating, Blackgrass ([3]; Preemergence, 250 g ai/ha): 5
Plant response rating, Blackgrass ([3]; Preemergence, 500 g ai/ha): 5
Plant response rating (0 to 100), Crabgrass, Large ([4]; Postemergence, 62 g ai/ha): 0
Plant response rating (0 to 100), Crabgrass, Large ([4]; Postemergence, 125 g ai/ha): 0
Plant response rating, Crabgrass, Large [4, 13]: 0
Plant response rating, Crabgrass, Large [4, 14]: 0
Plant response rating, Crabgrass, Large ([4]; Preemergence, 62 g ai/ha): 0
Plant response rating, Crabgrass, Large ([4]; Preemergence, 125 g ai/ha): 0
Plant response rating, Crabgrass, Large ([4]; Preemergence, 250 g ai/ha): 15
Plant response rating, Crabgrass, Large ([4]; Preemergence, 500 g ai/ha): 15
Plant response rating (0 to 100), Velvetleaf ([5]; Postemergence, 62 g ai/ha): 80
Plant response rating (0 to 100), Velvetleaf ([5]; Postemergence, 125 g ai/ha): 80
Plant response rating, Velvetleaf [5, 13]: 85
Plant response rating, Velvetleaf [5, 14]: 85
Plant response rating, Velvetleaf ([5]; Preemergence, 62 g ai/ha): 65
Plant response rating, Velvetleaf ([5]; Preemergence, 125 g ai/ha): 90
Plant response rating, Velvetleaf ([5]; Preemergence, 250 g ai/ha): 98
Plant response rating, Velvetleaf ([5]; Preemergence, 500 g ai/ha): 98
Plant response rating (0 to 100 scale), Corn (corn (Zea mays); Postemergence, 125 g ai/ha): 0
Plant response rating (0 to 100 scale), Corn (corn (Zea mays); Postemergence, 500 g ai/ha): 0
Corn plant response rating (0 = no effect, 100 = complete control) (corn (Zea mays); Preemergence, 125 g ai/ha): 0
Plant response rating (0 to 100 scale), Corn (corn (Zea mays); Preemergence, 500 g ai/ha): 0
Plant response rating (0 to 100 scale), Wheat ([6]; Postemergence, 125 g ai/ha): 0
Plant response rating (0 to 100 scale), Wheat ([6]; Postemergence, 500 g ai/ha): 0
Wheat plant response rating (0 = no effect, 100 = complete control) ([6]; Preemergence, 125 g ai/ha): 0
Plant response rating (0 to 100 scale), Wheat ([6]; Preemergence, 500 g ai/ha): 0
Plant response rating (0 to 100 scale), Pigweed ([7]; Postemergence, 125 g ai/ha): 80
Plant response rating (0 to 100 scale), Pigweed ([7]; Postemergence, 500 g ai/ha): 90
Pigweed plant response rating (0 = no effect, 100 = complete control) ([7]; Preemergence, 125 g ai/ha): 80
Plant response rating (0 to 100 scale), Pigweed ([7]; Preemergence, 500 g ai/ha): 90
Plant response rating (0 to 100 scale), Crabgrass, Large ([8]; Postemergence, 125 g ai/ha): 0
Plant response rating (0 to 100 scale), Crabgrass, Large ([8]; Postemergence, 500 g ai/ha): 0
Crabgrass, Large plant response rating (0 = no effect, 100 = complete control) ([8]; Preemergence, 125 g ai/ha): 0
Plant response rating (0 to 100 scale), Crabgrass, Large ([8]; Preemergence, 500 g ai/ha): 0
Plant response rating (0 to 100 scale), Morningglory ([9]; Postemergence, 125 g ai/ha): 0
Plant response rating (0 to 100 scale), Morningglory ([9]; Postemergence, 500 g ai/ha): 0
Morningglory plant response rating (0 = no effect, 100 = complete control) ([9]; Preemergence, 125 g ai/ha): 0
Plant response rating (0 to 100 scale), Morningglory ([9]; Preemergence, 500 g ai/ha): 0
Plant response rating (0 to 100 scale), Velvetleaf ([10]; Postemergence, 125 g ai/ha): 80
Plant response rating (0 to 100 scale), Velvetleaf ([10]; Postemergence, 500 g ai/ha): 90
Velvetleaf plant response rating (0 = no effect, 100 = complete control) ([10]; Preemergence, 125 g ai/ha): 20
Plant response rating (0 to 100 scale), Velvetleaf ([10]; Preemergence, 500 g ai/ha): 60
Plant response rating (0 to 100 scale), Foxtail, Giant ([11]; Postemergence, 125 g ai/ha): 0
Plant response rating (0 to 100 scale), Foxtail, Giant ([11]; Postemergence, 500 g ai/ha): 0
Foxtail, Giant plant response rating (0 = no effect, 100 = complete control) ([11]; Preemergence, 125 g ai/ha): 0
Plant response rating (0 to 100 scale), Foxtail, Giant ([11]; Preemergence, 500 g ai/ha): 0
Plant response rating (0 to 100 scale), Barnyardgrass ([12]; Postemergence, 125 g ai/ha): 0
Plant response rating (0 to 100 scale), Barnyardgrass ([12]; Postemergence, 500 g ai/ha): 0
Barnyardgrass plant response rating (0 = no effect, 100 = complete control) ([12]; Preemergence, 125 g ai/ha): 0
Plant response rating (0 to 100 scale), Barnyardgrass ([12]; Preemergence, 500 g ai/ha): 0
